# Assay results as given in patent US5800838A, “Composition that inhibits or destroys at least one unicellular living organism containing fluorine F- and Lithium li+” (priority 1987, dated 1998).
# Like-named read-outs stand apart in the source and are kept apart here.
# Legend:
# Pseudomonas aeruginosa [1] = test: MIC of antibiotics by microdilution in liquid medium on plates (Example 18); type: cell-based; conditions: Pseudomonas aeruginosa
# Description: The unicellular living organism chosen for the trials is Pseudomonas aeruginosa (wild-type strain originating from hospital sources).
# The same methodology as for Examples 11 and 12 was follows. Bacteriostatic analyses were performed with a number of antibiotics belonging to benzylpenicillins, and aminopenicillins, and first and second generation cephalosporins, namely:
# The determination of the MIC was carried out by the microdilution method in liquid medium on plates. Aqueous solutions of each antibiotic are prepared in MUELLER HINION broth, to obtain dilutions in a geometric ratio of 2. The solvent is sterile double-distilled water.
# The preparation of the bacterial inoculum is made with a culture of Pseudomonas aeruginosa, with agitation on a water bath at 37° C. for 4 to 6 hours, giving 10^6 bacteria/ml.
# Three trials were performed per antibiotic and per bacterial inoculum. The trials were performed first with the antibiotics alone (trials a).sctn., and then with the addition of a dose of 1 mg/l of an aqueous solution of lithium fluoride (trials b).sctn. to the dilution of each one in every cup of every plate.
# Pseudomonas aeruginosa [2] = test: Resistance of Pseudomonas aeruginosa to antiseptics in terms of water hardness and proteins; type: cell-based;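 also: R means colony growth observed and S means no significant growth; key: R: resistant (a growth of colonies was observed); S: sensitive (no significant growth was observed)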
# Description: The resistance of Pseudomonas aeruginosa to various reputedly bactericidal active principles or commercial antiseptics was studied in terms of the hardness of the water and the presence or absence of proteins. The same trial was carried out on the foaming paste according to the invention (see Example 15).
# [3] = + LiF 1 mg/l, strain lic R βLac^+ OXA, read-out: MIC (average MIC value)
# [4] = + LiF 1 mg/l, strain lic R βLac^+ PSE, read-out: MIC (average MIC value)
# [5] = + LiF 1 mg/l, strain lic R βLac^+ TEM, read-out: MIC (average MIC value)
# [6] = + LiF 1 mg/l, strain lic R βLac^+ cephalosporinase, read-out: MIC (average MIC value)
# [7] = + LiF 1 mg/l, strain lic S βLac^- (first column), read-out: MIC (average MIC value)
# [8] = + LiF 1 mg/l, strain lic S βLac^- (second column), read-out: MIC (average MIC value)
# [9] = alone, strain lic R βLac^+ OXA, read-out: MIC (average MIC value)
# [10] = alone, strain lic R βLac^+ PSE, read-out: MIC (average MIC value)
# [11] = alone, strain lic R βLac^+ TEM, read-out: MIC (average MIC value)
# [12] = alone, strain lic R βLac^+ cephalosporinase, read-out: MIC (average MIC value)
# [13] = alone, strain lic S βLac^- (first column), read-out: MIC (average MIC value)
# [14] = alone, strain lic S βLac^- (second column), read-out: MIC (average MIC value)
SMILES,MIC (Pseudomonas aeruginosa [1]; [3]) [µg/mL],MIC (Pseudomonas aeruginosa [1]; [4]) [µg/mL],MIC (Pseudomonas aeruginosa [1]; [5]) [µg/mL],MIC (Pseudomonas aeruginosa [1]; [6]) [µg/mL],MIC (Pseudomonas aeruginosa [1]; [7]) [µg/mL],MIC (Pseudomonas aeruginosa [1]; [8]) [µg/mL],MIC (Pseudomonas aeruginosa [1]; [9]) [µg/mL],MIC (Pseudomonas aeruginosa [1]; [10]) [µg/mL],MIC (Pseudomonas aeruginosa [1]; [11]) [µg/mL],MIC (Pseudomonas aeruginosa [1]; [12]) [µg/mL],MIC (Pseudomonas aeruginosa [1]; [13]) [µg/mL],MIC (Pseudomonas aeruginosa [1]; [14]) [µg/mL],other results
"CC1(C)S[C@@H]2[C@H](NC(=O)[C@H](NC(=O)c3cnc4cccnc4c3O)c3ccccc3)C(=O)N2[C@H]1C(=O)O [APALCILLIN, apalcillin]",32,32,8,16,2,8,32,64,16,16,4,16,
"CC1(C)S[C@@H]2[C@H](NC(=O)[C@H](NC(=O)N3CCNC3=O)c3ccccc3)C(=O)N2[C@H]1C(=O)O [AZLOCILLIN, azlocillin]",64,64,64,128,4,32,64,64,64,128,8,32,
"CC(C)(O/N=C(\C(=O)N[C@@H]1C(=O)N2C(C(=O)[O-])=C(C[n+]3ccccc3)CS[C@H]12)c1csc(N)n1)C(=O)O [CAFTAZIDIME, ceftazidime]",,,,,,,,,,,,,"MIC (Pseudomonas aeruginosa [1]; read-out: MIC (average MIC value), + LiF 1 mg/l, strain lic R βLac^+ OXA): 4 µg/mL; MIC (Pseudomonas aeruginosa [1]; read-out: MIC (average MIC value), + LiF 1 mg/l, strain lic R βLac^+ PSE): 2 µg/mL; MIC (Pseudomonas aeruginosa [1]; read-out: MIC (average MIC value), + LiF 1 mg/l, strain lic R βLac^+ TEM): 4 µg/mL; MIC (Pseudomonas aeruginosa [1]; read-out: MIC (average MIC value), + LiF 1 mg/l, strain lic R βLac^+ cephalosporinase): 32 µg/mL; MIC (Pseudomonas aeruginosa [1]; read-out: MIC (average MIC value), + LiF 1 mg/l, strain lic S βLac^- (first column)): 2 µg/mL; MIC (Pseudomonas aeruginosa [1]; read-out: MIC (average MIC value), + LiF 1 mg/l, strain lic S βLac^- (second column)): 4 µg/mL; MIC (Pseudomonas aeruginosa [1]; read-out: MIC (average MIC value), alone, strain lic R βLac^+ OXA): 4 µg/mL; MIC (Pseudomonas aeruginosa [1]; read-out: MIC (average MIC value), alone, strain lic R βLac^+ PSE): 2 µg/mL; MIC (Pseudomonas aeruginosa [1]; read-out: MIC (average MIC value), alone, strain lic R βLac^+ TEM): 4 µg/mL; MIC (Pseudomonas aeruginosa [1]; read-out: MIC (average MIC value), alone, strain lic R βLac^+ cephalosporinase): 32 µg/mL; MIC (Pseudomonas aeruginosa [1]; read-out: MIC (average MIC value), alone, strain lic S βLac^- (first column)): 4 µg/mL; MIC (Pseudomonas aeruginosa [1]; read-out: MIC (average MIC value), alone, strain lic S βLac^- (second column)): 4 µg/mL"
C=O [Formaldehyde],,,,,,,,,,,,,"resistance (Pseudomonas aeruginosa [2]; 0.2 ml inoculum, contact time 10 mn, distilled water, P+): S; resistance (Pseudomonas aeruginosa [2]; 0.2 ml inoculum, contact time 10 mn, distilled water, P-): S; resistance (Pseudomonas aeruginosa [2]; 0.2 ml inoculum, contact time 10 mn, hard water, P+): S; resistance (Pseudomonas aeruginosa [2]; 0.2 ml inoculum, contact time 10 mn, hard water, P-): S; resistance (Pseudomonas aeruginosa [2]; 0.4 ml inoculum, contact time 20 mn, distilled water, P+): S; resistance (Pseudomonas aeruginosa [2]; 0.4 ml inoculum, contact time 20 mn, distilled water, P-): S; resistance (Pseudomonas aeruginosa [2]; 0.4 ml inoculum, contact time 20 mn, hard water, P+): S; resistance (Pseudomonas aeruginosa [2]; 0.4 ml inoculum, contact time 20 mn, hard water, P-): S; resistance (Pseudomonas aeruginosa [2]; 0.6 ml inoculum, contact time 30 mn, distilled water, P+): S; resistance (Pseudomonas aeruginosa [2]; 0.6 ml inoculum, contact time 30 mn, distilled water, P-): S; resistance (Pseudomonas aeruginosa [2]; 0.6 ml inoculum, contact time 30 mn, hard water, P+): S; resistance (Pseudomonas aeruginosa [2]; 0.6 ml inoculum, contact time 30 mn, hard water, P-): S"

# Further lines, with some results ahead:
MIC (Pseudomonas aeruginosa [1]; [3]) [µg/mL],MIC (Pseudomonas aeruginosa [1]; [4]) [µg/mL],MIC (Pseudomonas aeruginosa [1]; [5]) [µg/mL],MIC (Pseudomonas aeruginosa [1]; [6]) [µg/mL],MIC (Pseudomonas aeruginosa [1]; [7]) [µg/mL],MIC (Pseudomonas aeruginosa [1]; [8]) [µg/mL],MIC (Pseudomonas aeruginosa [1]; [9]) [µg/mL],MIC (Pseudomonas aeruginosa [1]; [10]) [µg/mL],MIC (Pseudomonas aeruginosa [1]; [11]) [µg/mL],MIC (Pseudomonas aeruginosa [1]; [12]) [µg/mL],MIC (Pseudomonas aeruginosa [1]; [13]) [µg/mL],MIC (Pseudomonas aeruginosa [1]; [14]) [µg/mL],SMILES,other results
16,16,32,64,4,16,16,32,32,64,4,16,"NC(=O)c1cc[n+](CC2=C(C(=O)O)N3C(=O)[C@@H](NC(=O)[C@@H](c4ccccc4)S(=O)(=O)[O-])[C@H]3SC2)cc1 [CEFSULODIN, cefsulodin]",
32,16,32,128,8,16,32,32,32,256,16,32,"CO/N=C(\C(=O)N[C@@H]1C(=O)N2C(C(=O)O)=C(CSc3nc(=O)c(=O)[nH]n3C)CS[C@H]12)c1csc(N)n1 [CEFTRIAXONE, ceftriaxone]",
